In publication PMC4445328, “Azasugar inhibitors as pharmacological chaperones for Krabbe disease” (Chemical Science, 2015):
Read-outs that look alike come from different tables or passages of the source.

Columns and labels:
GALC [1] = target: T1, GALC (Mus musculus, UniProt P54818); assay: Differential scanning fluorimetry (DSF) thermal shift of wild-type GALC; format: binding; settings: for ΔTm at 5000 µM / ΔTm1 pH 7.4 (first transition of double sigmoid melt curve) / ΔTm2 pH 7.4 (second transition of double sigmoid melt curve): 5.0 mM compound; for ΔTm at 5000 µM: triplicate; for additional increase of Tm over DGJ, DIL and IGL / increase of Tm of wild-type enzyme: pH 4.6, 5 mM; for ΔTm1 pH 7.4 (first transition of double sigmoid melt curve) / ΔTm2 pH 7.4 (second transition of double sigmoid melt curve): PBS pH 7.4
T1 construct: made in house
T1 sequence (P54818 43-684): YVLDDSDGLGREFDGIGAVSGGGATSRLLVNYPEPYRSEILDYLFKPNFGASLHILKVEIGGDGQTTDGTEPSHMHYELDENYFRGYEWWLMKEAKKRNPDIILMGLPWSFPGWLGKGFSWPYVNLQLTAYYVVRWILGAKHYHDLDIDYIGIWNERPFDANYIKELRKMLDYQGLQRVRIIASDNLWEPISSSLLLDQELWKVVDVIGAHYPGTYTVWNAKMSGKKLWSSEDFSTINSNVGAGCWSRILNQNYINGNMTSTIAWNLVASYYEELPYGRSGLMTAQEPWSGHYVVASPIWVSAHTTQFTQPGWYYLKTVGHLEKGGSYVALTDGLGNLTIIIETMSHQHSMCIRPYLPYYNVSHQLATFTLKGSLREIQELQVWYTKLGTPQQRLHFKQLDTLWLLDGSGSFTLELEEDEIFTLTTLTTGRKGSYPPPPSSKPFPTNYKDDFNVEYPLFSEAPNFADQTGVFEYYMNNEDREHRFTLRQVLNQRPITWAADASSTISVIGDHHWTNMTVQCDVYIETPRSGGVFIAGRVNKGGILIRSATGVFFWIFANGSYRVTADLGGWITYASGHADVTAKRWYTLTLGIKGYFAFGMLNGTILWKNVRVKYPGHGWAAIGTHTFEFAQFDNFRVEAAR

[2] = target: T2, β-galactocerebrosidase (GALC) (Mus musculus, UniProt P54818); assay: GALC enzyme inhibition kinetics, Ki determination with chromogenic substrate 4NβDG; format: biochemical; settings: for Ki: pH 4.6, substrate 4-nitrophenyl-β-D-galactopyranoside, steady-state, competitive inhibition model; for times more potent inhibitors of GALC than pyrrolidine DIL and lactam IGL: pH 4.6, ratio of Ki values
T2 construct: made in house
T2 sequence (P54818 43-684): T1 sequence (P54818 43-684)

[3] = pKaH and protonation state of azasugars; format: physicochemical; settings: pH 7.4, from pKaH
[4] = parameters: method as in PMID 11891910; settings: cited from earlier work
GALC E258Q = target: T3, GALC E258Q (Mus musculus, UniProt P54818, E274Q); assay: DSF thermal shift of GALC E258Q mutant; format: binding; settings: pH 7.4 PBS, 10 mM compound
T3 construct: made in house
T3 sequence (P54818 41-684 E274Q limits assumed): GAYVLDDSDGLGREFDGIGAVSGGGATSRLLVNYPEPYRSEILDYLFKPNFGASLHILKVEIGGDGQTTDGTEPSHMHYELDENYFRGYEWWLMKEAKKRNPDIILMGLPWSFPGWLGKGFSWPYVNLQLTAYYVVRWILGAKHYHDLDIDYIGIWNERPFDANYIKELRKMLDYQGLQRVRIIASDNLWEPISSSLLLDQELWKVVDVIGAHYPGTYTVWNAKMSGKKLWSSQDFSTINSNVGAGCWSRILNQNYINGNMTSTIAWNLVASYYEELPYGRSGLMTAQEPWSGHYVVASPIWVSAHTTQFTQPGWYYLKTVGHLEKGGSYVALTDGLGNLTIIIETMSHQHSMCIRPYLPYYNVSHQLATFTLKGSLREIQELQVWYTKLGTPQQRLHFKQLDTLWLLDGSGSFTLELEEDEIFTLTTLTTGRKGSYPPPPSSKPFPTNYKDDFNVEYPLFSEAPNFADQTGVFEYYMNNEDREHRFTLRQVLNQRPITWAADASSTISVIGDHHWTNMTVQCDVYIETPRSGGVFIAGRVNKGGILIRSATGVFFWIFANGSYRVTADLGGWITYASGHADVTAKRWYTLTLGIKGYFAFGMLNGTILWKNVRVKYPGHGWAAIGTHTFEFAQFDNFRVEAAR
Text: All molecules form stabilizing hydrogen bonds with the side chain of E258 in the active site (Fig. 8A). […] Thus E258 O^ε2 could be forming a tight electrostatic interaction with the charged nitrogen in the ring of these molecules. Mutation of E258 to glutamine allows for the maintenance of a hydrogen bond but not an electrostatic interaction. We expressed and purified the E258Q mutant and repeated the DSF experiments at both pH 4.6 and pH 7.4. The importance of this interaction between E258 and the candidate chaperone molecules is highlighted by the complete loss of stabilization of GALC E258Q at pH 4.6 by all molecules except lactam IGL, which is incapable of forming a salt bridge (Fig. 8B). At pH 7.4, the global stability conferred by piperidine IGF to the E258Q mutant has lost the double sigmoid features seen for the wild-type GALC at pH 7.4 (Fig. 4A and 8C). […] To further understand the nature of the GALC–IGF interaction that is conferring the double melt curve we carried out DSF experiments at a range of pH values. […]
DSF experiments were performed in 48-well plates, 50 μL reactions comprised 5.0 μg GALC and 5× SyPRO Orange dye in either PBS pH 7.4, 20 mM Tris pH 7.4 or 20 mM sodium acetate pH 4.6. […] SyPRO fluorescence was monitored on the HEX channel. […] Stabilization is expressed as the ΔT m compared to a protein-only control. […]

GALC [5] = target: T1, GALC; assay: GALC crystal soaks, X-ray ligand binding in the active site; settings: 20 mM ligand crystal soak; non-binders repeated for 1 hour and overnight
[6] = 50 mM, Fig. S2, pH 4.6 and pH 7.4
[7] = PBS pH 7.4, mean ± SEM, read-out: ΔTm pH 7.4
[8] = sodium acetate pH 4.6, mean ± SEM, read-out: ΔTm pH 4.6

## OC[C@H]1OC(O)[C@H](O)[C@@H](O)[C@H]1O (mixture of isomers) [galactose, reference compound]
GALC [1]; [6]
  stabilization of GALC: no stabilization
[2]
  Ki: 7200 µM

## O=CC[C@@H](O)[C@@H](O)[C@H](O)CO [2-deoxy-galactose, reference compound]
GALC [1]; [6]
  stabilization of GALC: no stabilization

## OC[C@H]1NNC[C@@H](O)[C@H]1O [AGF, aza-galacto-fagomine]
GALC [1]; [7]
  ΔTm at 5000 µM: 4.6 °C
GALC [1]; [8]
  ΔTm at 5000 µM: 16.4 °C
GALC [1]
  additional increase of Tm over DGJ, DIL and IGL: 8–9 degrees
[3]
  molecules possessing a positive charge at pH 7.4: 2%
[2]
  times more potent inhibitors of GALC than pyrrolidine DIL and lactam IGL: greater than 80 times
  Ki: 0.63 ± 0.053 µM
[4]
  pKaH: 5.7

## OCC1NCC(O)C(O)C1O (stereo not shown) [DGJ, 1-deoxy-galacto-nojirimycin, reference compound]
GALC [1]; [7]
  ΔTm at 5000 µM: 5.2 °C
GALC [1]
  increase of Tm of wild-type enzyme: 6–8 degrees

## OCC1C2CCC(N2)C(O)C1O (stereo not shown) [DGN, deoxy-galacto-noeurostegine]
GALC [1]; [7]
  ΔTm at 5000 µM: -3.6 ± 0.1 °C
GALC [1]; [8]
  ΔTm at 5000 µM: 1 °C
GALC [1]; pH 7.4
  effect on global stability of wild-type GALC: destabilized GALC

## OC[C@H]1NC[C@@H](O)[C@H]1O [DIL]
GALC [1]; [7]
  ΔTm at 5000 µM: 4 °C
GALC [1]; [8]
  ΔTm at 5000 µM: 7.2 °C
GALC [1]
  increase of Tm of wild-type enzyme: 6–8 degrees
[2]
  Ki: 130 ± 6 µM

## OC[C@H]1NC[C@H](O)[C@@H](O)[C@@H]1O [DNJ, 1-deoxynojirimycin, reference compound]
GALC [1]; up to 10 mM, either pH (4.6 or 7.4), Fig. S2
  stabilization of GALC: unable to stabilize GALC

## OC[C@H]1CNC[C@@H](O)[C@H]1O [IGF, iso-galacto-fagomine]
GALC [1]
  ΔTm1 pH 7.4 (first transition of double sigmoid melt curve): 4 °C
  ΔTm2 pH 7.4 (second transition of double sigmoid melt curve): 21 °C
  additional increase of Tm over DGJ, DIL and IGL: 8–9 degrees
GALC [1]; listed as IGF1
  ΔTm1 pH 7.4 (first transition of double sigmoid melt curve): +4.0 ± 0.3 °C
GALC [1]; listed as IGF2
  ΔTm2 pH 7.4 (second transition of double sigmoid melt curve): +21.0 ± 0.2 °C
GALC [1]; [8]
  ΔTm at 5000 µM: 17.7 °C
[3]
  molecules possessing a positive charge at pH 7.4: 96%
[2]
  times more potent inhibitors of GALC than pyrrolidine DIL and lactam IGL: greater than 80 times
  Ki: 0.38 ± 0.026 µM
[4]
  pKaH: 8.8
GALC E258Q
  higher Tm2 with GALC E258Q: abolished

## O=C1NC[C@H](CO)[C@H](O)[C@@H]1O [IGL, iso-galacto-fagomine lactam]
GALC [1]; [7]
  ΔTm at 5000 µM: 1.6 °C
GALC [1]; [8]
  ΔTm at 5000 µM: 8.1 °C
GALC [1]
  increase of Tm of wild-type enzyme: 6–8 degrees
[2]
  Ki: 52 ± 3 µM

## CN1[C@@H](CC(=O)c2ccccc2)CCC[C@H]1C[C@H](O)c1ccccc1 [α-lobeline, reference compound]
GALC [5]
  binding in GALC crystals (difference electron density in active site): not observed to bind
GALC [1]; either pH (4.6 or 7.4), data not shown
  change in Tm: No change in T m
